Source: PMC10319809, “Chronic UCN2 treatment desensitizes CRHR2 and improves insulin sensitivity” (Nature Communications, 2023)
“And” between values parts separate entries of the source, which are not always exact repeats. Equal entries are not always repeated. Where no end group is shown, it is not given here.

Key:
[1] = tested on: soleus and gastrocnemius muscle; test: In vivo [3H]2-deoxyglucose uptake in soleus and gastrocnemius muscle; parameters: species or system mouse; conditions: [3H]2DG; for 2DG Uptake, gastrocnemius muscle: individual animals (Fig. 2I); for 2DG Uptake, soleus muscle: individual animals (Fig. 2J)
Description: To determine 2-deoxy-glucose (2DG) uptake in soleus and gastrocnemius muscle, mice were fasted for 5 h and anaesthetized with isoflurane. […] 15 min following 2DG administration, blood was collected via intracardiac stick and soleus and gastrocnemius muscles were dissected and snap frozen in liquid nitrogen. Samples were stored at −80 C until processing. Blood was treated with BaOH2 and ZnSO4 and after centrifugation, radioactivity was determined via liquid scintillation counting (Tri-Carb 5110TR, PerkinElmer, Waltham, MA). Tissue was homogenized and mixed with water or BaOH2 and ZnSO4 to determine total and unphosphorylated 2DG content.

[2] = tested on: AKT1S1, IRS1, AKT phosphorylation; test: Western blot of p-AKT1S1, p-IRS1, p-AKT in gastrocnemius muscle; format: in vivo, mouse
Description: Animal tissues were snap-frozen in liquid nitrogen and stored at −80 °C. Frozen tissues were homogenized in ice-cold RIPA buffer (Sigma Aldrich, St. Louis, MO), and protein concentrations were determined using a BCA protein assay (Thermo Fisher Scientific, Waltham, MA). Protein extracts were separated on NuPAGE 4–20% Bis-Tris gels (Bio-Rad, Hercules, CA) and blotted onto PVDF membranes (Bio-Rad, Hercules, CA). Membranes were blocked for 1 h at room temperature in TBST (0.1%) containing 5% milk. Membranes were then incubated overnight at 4 °C with primary antibodies against pSer183-AKT1S1, total AKT1S1, pSer3-IRS1, total IRS1, pSer473-AKT, and total AKT (Cell Signaling, Danvers, MA #5936, #2610, #2385, #2382, #4060, and #4691, respectively) diluted 1:1000. Following three washing steps with TBST (0.1%), membranes were incubated with HRP-conjugated secondary antibodies for 1 h at room temperature. After thorough washing, proteins were visualized with SuperSignal West Dura Extended Duration Substrate (Thermo Fisher Scientific, Waltham, MA) on the Bio-Rad ChemiDoc MP. Immunoreactive bands were quantified using Image J Software (NIH).

[3] = UCN2 1 mg/kg IP +Insulin 0.75 IU/kg
[4] = UCN2 1 mg/kg IP +Veh (no insulin)

With “IVLSLDVPIGLLQILLEQARARAAREQATTNARILARVGHC-NH2 (C-terminus assumed) [UCN2, Urocortin 2]” the “2DG Uptake, gastrocnemius muscle” value [1, 3] was 17.97 µmol/g/h and 16.61 µmol/g/h and 11.65 µmol/g/h and 22.6 µmol/g/h and 21.1 µmol/g/h and 20.95 µmol/g/h and 16.15 µmol/g/h and 12.85 µmol/g/h, the “2DG Uptake, soleus muscle” value [1, 3] was 25.34 µmol/g/h and 15.14 µmol/g/h and 16.51 µmol/g/h and 20.54 µmol/g/h and 24.42 µmol/g/h and 24.35 µmol/g/h and 25.91 µmol/g/h and 18.85 µmol/g/h and the “2DG Uptake, gastrocnemius muscle” value [1, 4] was 2.37 µmol/g/h and 2.36 µmol/g/h and 2.81 µmol/g/h and 1.95 µmol/g/h and 2.97 µmol/g/h and 3.08 µmol/g/h and 2.83 µmol/g/h and 3.26 µmol/g/h. The “2DG Uptake, soleus muscle” value [1, 4] was 2.44 µmol/g/h and 2.26 µmol/g/h and 2.42 µmol/g/h and 2.39 µmol/g/h and 2.31 µmol/g/h and 2.62 µmol/g/h and 3.69 µmol/g/h, the “Relative pAKT1s1/AKT1s1” value ([2]; Fig 5F, UCN2 vs Saline, individual samples) was 0.4889 and 0.4355 and 0.6101 and 0.3366 and the “Relative pIRS1/IRS1” value ([2]; Fig 5G, UCN2 vs Saline, individual samples) was 0.5347 and 0.4912 and 0.4136 and 0.3459. For the same substance, the “Relative pAKT/AKT” value ([2]; Fig 5H, UCN2 vs Saline, individual samples) was 0.5139 and 0.5838 and 0.5951 and 0.5852 and the “AKT1S1, IRS1 and AKT phosphorylation, acute treatment” value ([2]; gastrocnemius, acute UCN2, Western blot) was “dephosphorylation”.
